59 compounds from patent publication US20130029964A1, “[5, 6] HETEROCYCLIC COMPOUND” (DAIICHI SANKYO COMPANY, LIMITED, priority 2010, published 2013) can be followed below.

Counter-ions that a name gives are not always drawn.

In the assay the test system is ST2 cells, murine bone marrow-derived stromal cells. Description: Osteoblast differentiation test (ALP activity). The conditions noted are these: Mus musculus, ST-2, 96 h, at 0.1 μg/mL, control group (0.1% DMSO) = 100%, four days of culturing, read-out: alkaline phosphatase activity. The assay is classed as cell-based. The method, then: ST2 cells, murine bone marrow-derived stromal cells, (obtained from RIKEN) were used.
In this test, α-MEM media (obtained from GIBCO BRL Cat. No. 10370-021) containing 10% (v/v) of inactivated calf serum (obtained from Hyclone Laboratories, Inc.) and 1% (v/v) of Penicillin-Streptomycin Liquid (obtained from GIBCO BRL Cat. No. 15140-122) (hereinbelow, abbreviated as 10%-FBS-αMEM) were used. In this test, all culturing was performed in a CO2 incubator (37° C., 95% humidity, 5% CO2).
The aforementioned cells were detached with 2 mL of a 0.25% trypsin solution (obtained from GIBCO BRL Cat. No. 15050-065) and dispersed in 10 mL of 10%-FBS-αMEM. Subsequently, the cells were collected by centrifugation (25° C., 800 rpm, five minutes). Then, a cell suspension containing 40000 of the cells/mL of 10%-FBS-αMEM was prepared. The cell suspension was then dispensed into 96-well plates (the product of Falcon), 100 μL per well, at a density of 4000 cells/well, followed by culturing for 24 hours. To the wells, except for the below-described well containing a control group, the compound was dispensed at final concentrations of 0.01, 0.03, 0.1, and 0.3 μg/ml. To the well of a control group, DMSO was dispensed at a final concentration of 0.1% (v/v). After four days of culturing, the activity of alkaline phosphatase (ALP) was measured in each group.
The measurement of ALP activity was performed as follows. That is, the medium in each well of the culture plates was completely removed. Each well was then washed by dispensing 100 μL of Dulbecco's phosphate buffer (obtained from GIBCO BRL Cat. No. 14190-144) and then removing it. A cell lysate solution containing 10 mM MgCl2 and 2% (v/v) TritonX-100 (Sigma) was prepared and dispensed at 50 μL/well, followed by stirring at room temperature for five minutes. An ALP substrate solution containing 50 mM diethanolamine (Wako Pure Chemical Industries, Ltd., Cat. No. 099-03112) and 20 mM p-nitrophenyl phosphate (Wako Pure Chemical Industries, Ltd., Cat. No. 147-02343) was prepared and dispensed at 50 μL/well, and the plates were left to stand at room temperature for 10 minutes. Subsequently, absorbance was measured by a microplate reader (Bio-Rad Laboratories, Inc.). Setting the measurement value of the control group of each plate at 100%, alkaline phosphatase activity (increase (%)) in the test compound-addition group was calculated, which was assessed as the degree of osteoblast differentiation.
`OCCOc1ccc(-c2cnn3ccccc23)cc1` [Example 117]: the activity at 0.1 µg/mL is at least 200%.

`OC1COCC1OCCOc1ccc(-c2cnc3ccc(F)cn23)cc1` (centres unmarked) [Example 86]: the activity at 0.1 µg/mL is at least 200%.

As for `c1ccc2c(c1)ncn2-c1ccc(OCCOC2CCOCC2)cc1` [Example 100], the activity at 0.1 µg/mL was at least 200%.

On to `OC1COCC1OCCOc1ccc(-n2cnc3ccc(OC(F)F)cc32)cc1` (centres unmarked) [Example 96], for which the activity at 0.1 µg/mL was at least 200%.

Regarding `Fc1ccc2ncc(-c3ccc(OCCOCCOC4CCOCC4)cc3)n2c1` [Example 82], the activity at 0.1 µg/mL is at least 200%.

Consider `OCCOc1ccc(-c2cnc3ccccn23)cc1` [Example 115], for which the activity at 0.1 µg/mL is at least 200%.

For `N#Cc1ccn2c(-c3ccc(OCCO)cc3)cnc2c1` [Example 75], the activity at 0.1 µg/mL is at least 200%.

Turning to `c1cc(-c2ccc3c(c2)ncn3-c2ccc(OCCOC3CCOCC3)cc2)ccn1` [Example 44], the activity at 0.1 µg/mL is at least 200%.

Turning to `OCCOc1ccc(-n2cnc3ccc(F)cc32)cc1` [Example 47], the activity at 0.1 µg/mL is at least 200%.

With `CCOc1ccc2c(-c3ccc(OCCO)cc3)cnn2c1` [Example 126], the activity at 0.1 µg/mL is at least 200%.

As for `O=C(c1ccc(-c2ccn3c(-c4ccc(OCCO)cc4)cnc3c2)cc1)N1CCOCC1` [Example 102], the activity at 0.1 µg/mL is at least 200%.

On to `COC1COCC1OCCOc1ccc(-c2cnc3ccc(F)cn23)cc1` (centres unmarked) [Example 84], for which the activity at 0.1 µg/mL is at least 200%.

Regarding `NC(=O)c1ccc2ncc(-c3ccc(OCCOC4CCOCC4)cc3)n2c1` [Example 19, 3-{4-[2-(Tetrahydro-2H-pyran-4-yloxy)ethoxy]phenyl}imidazo[1,2-a]pyridine-6-carboxamide], the activity at 0.1 µg/mL was at least 200%.

With `OCCOc1ccc(-n2cnc3cc(-c4cncnc4)ccc32)cc1` [Example 38], the activity at 0.1 µg/mL is at least 200%.

Take `c1cc(-n2cnc3cc4c(cc32)OCCO4)ccc1OCCOC1CCOCC1` [Example 49]: the activity at 0.1 µg/mL is at least 200%.

Regarding `OCCOC1CCN(c2cnc3cc(-c4ccncc4)ccn23)CC1` [Example 76], the activity at 0.1 µg/mL was at least 200%.

Consider `CC(=O)N1CC=C(c2ccn3c(-c4ccc(OCCOC5CCOCC5)cc4)cnc3c2)CC1` [Example 68], for which the activity at 0.1 µg/mL was at least 200%.

Take `Cn1ccc(-c2ccn3c(-c4ccc(OCCO)cc4)cnc3c2)c1` [Example 67]: the activity at 0.1 µg/mL is at least 200%.

As for `O=C(c1ccc(-c2ccn3c(N4CCC(OCCO)CC4)cnc3c2)cc1)N1CCOCC1` [Example 103], the activity at 0.1 µg/mL was at least 200%.

In the case of `CCOc1ccc2c(c1)ncn2-c1ccc(OCCO)cc1` [Example 30], the activity at 0.1 µg/mL is at least 200%.

In the case of `N#Cc1ccc2ncc(-c3ccc(OCCOC4COCC4O)cc3)n2c1` (centres unmarked) [Example 91], the activity at 0.1 µg/mL is at least 200%.

For `OCCOc1ccc(-c2cnc3cc(N4CCOCC4)ccn23)cc1` [Example 70], the activity at 0.1 µg/mL is at least 200%.

Take `Clc1ccc2ncc(-c3ccc(OCCOC4CCOCC4)cc3)n2c1` [Example 131]: the activity at 0.1 µg/mL was at least 200%.

Turning to `N#Cc1ccc2ncn(-c3ccc(OCCOC[C@H]4COCCO4)cc3)c2c1` [Example 92], the activity at 0.1 µg/mL was at least 200%.

Turning to `OCCOCCNc1ccc(-n2cnc3ccccc32)cc1` [Example 3, 2-(2-{[4-(1H-Benzimidazol-1-yl)phenyl]amino}ethoxy)ethanol], the activity at 0.1 µg/mL is at least 200%.

Consider `Cn1cc(-c2ccc3c(c2)ncn3-c2ccc(OCCO)cc2)cn1` [Example 63], for which the activity at 0.1 µg/mL was at least 200%.

On to `OCCOc1ccc(-n2cnc3cc(-c4nccs4)ccc32)cc1` [Example 64], for which the activity at 0.1 µg/mL is at least 200%.

`COCCNc1ccc(-n2cnc3ccccc32)cc1` [Example 6]: the activity at 0.1 µg/mL is at least 200%.

Regarding `N#Cc1ccc2ncn(-c3ccc(OCCOC4CCOCC4)cc3)c2c1` [Example 24, 1-{4-[2-(Tetrahydro-2H-pyran-4-yloxy)ethoxy]phenyl}-1H-benzimidazole-6-carbonitrile hydrochloride], the activity at 0.1 µg/mL is at least 200%.

Turning to `Cn1cc(-c2ccn3c(-c4ccc(OCCO)cc4)cnc3c2)cn1` [Example 65], the activity at 0.1 µg/mL was at least 200%.

With `N#Cc1ccc2ncc(-c3ccc(OCCOC4CCOCC4)cc3)n2c1` [Example 148], the activity at 0.1 µg/mL was at least 200%.

Regarding `O=C(c1ccc(-c2ccc3c(c2)ncn3-c2ccc(OCCO)cc2)cn1)N1CCOCC1` [Example 16, 2-(4-{5-[6-(Morpholin-4-ylcarbonyl)pyridin-3-yl]-1H-benzimidazol-1-yl}phenoxy)ethanol], the activity at 0.1 µg/mL was at least 200%.

As for `O=C(c1ccc(-c2ccn3c(-c4ccc(NCCOC5CCOCC5)cc4)cnc3c2)nc1)N1CCOCC1` [Example 132], the activity at 0.1 µg/mL is at least 200%.

For the compound `OCCNc1ccc(-c2cnc3ccc(Cl)cn23)cc1` [Example 118], the activity at 0.1 µg/mL was at least 200%.

For `COc1ccc2ncc(-c3ccc(NCCO)cc3)n2c1` [Example 123], the activity at 0.1 µg/mL was at least 200%.

As for `c1ccn2ncc(-c3ccc(OCCOC4CCOCC4)cc3)c2c1` [Example 147], the activity at 0.1 µg/mL was at least 200%.

With `Fc1ccc2ncc(-c3ccc(OCCOC[C@H]4COCCO4)cc3)n2c1` [Example 87], the activity at 0.1 µg/mL is at least 200%.

With `N#Cc1ccc(-c2ccc3c(c2)ncn3-c2ccc(OCCO)cc2)cc1` [Example 51], the activity at 0.1 µg/mL is at least 200%.

In the case of `OCCOc1ccc(-n2cnc3cc(-c4ccncc4)ccc32)cc1` [Example 9, 2-[4-(5-Pyridin-4-yl-1H-benzimidazol-1-yl)phenoxy]ethanol], the activity at 0.1 µg/mL was at least 200%.

With `c1ccn2c(-c3ccc(OCCOC4CCOCC4)cc3)cnc2c1` [Example 98], the activity at 0.1 µg/mL is at least 200%.

`N#Cc1ccc2ncn(-c3ccc(OCCOC4COCC4O)cc3)c2c1` (centres unmarked) [Example 94]: the activity at 0.1 µg/mL was at least 200%.

Consider `CCOc1ccn2c(-c3ccc(OCCO)cc3)cnc2c1` [Example 34], for which the activity at 0.1 µg/mL is at least 200%.

As for `NC(=O)c1ccc(-c2ccc3c(c2)ncn3-c2ccc(OCCO)cc2)cc1` [Example 15, 4-{1-[4-(2-Hydroxyethoxy)phenyl]-1H-benzimidazol-5-yl}benzamide dihydrochloride], the activity at 0.1 µg/mL is at least 200%.

On to `OCCOc1ccc(-c2cnn3cc(-c4ccncc4)ccc23)cc1` [Example 11, 2-[4-(6-Pyridin-4-ylpyrazolo[1,5-a]pyridin-3-yl)phenoxy]ethanol], for which the activity at 0.1 µg/mL is at least 200%.

With `CN(C)C(=O)c1cccc(-c2ccn3c(-c4ccc(OCCO)cc4)cnc3c2)c1` [Example 106], the activity at 0.1 µg/mL is at least 200%.

Regarding `Fc1ccc2ncc(-c3ccc(OCCO[C@@H]4CCOC4)cc3)n2c1` [Example 110], the activity at 0.1 µg/mL is at least 200%.

`Fc1ccc2ncc(-c3ccc(NCCOC4CCOCC4)cc3)n2c1` [Example 111]: the activity at 0.1 µg/mL was at least 200%.

As to `Cc1cc(-c2ccc3c(c2)ncn3-c2ccc(OCCO)cc2)ccn1` [Example 43], the activity at 0.1 µg/mL was at least 200%.

Regarding `OCCOc1ccc(-c2cnc3ccc(-c4ccncc4)cn23)cc1` [Example 71], the activity at 0.1 µg/mL was at least 200%.

As for `OCCOc1ccc(-n2cnc3cc(-c4cccnc4)ccc32)cc1` [Example 42], the activity at 0.1 µg/mL was at least 200%.

`c1cn(-c2ccc3ncc(-c4ccc(OCCOC5CCOCC5)cc4)n3c2)cn1` [Example 112]: the activity at 0.1 µg/mL is at least 200%.

Turning to `OCCNc1ccc(-n2cnc3ccc(Cl)cc32)cc1` [Example 4, 2-{[4-(6-Chloro-1H-benzimidazol-1-yl)phenyl]amino}ethanol hydrochloride], the activity at 0.1 µg/mL was at least 200%.

With `O=C(c1ccc(-c2ccc3c(-c4ccc(OCCO)cc4)cnn3c2)nc1)N1CCOCC1` [Example 146], the activity at 0.1 µg/mL is at least 200%.

Take `NS(=O)(=O)c1ccc(-c2ccc3c(c2)ncn3-c2ccc(OCCO)cc2)cc1` [Example 52]: the activity at 0.1 µg/mL is at least 200%.

With `c1coc(-c2ccc3ncc(-c4ccc(OCCOC5CCOCC5)cc4)n3c2)n1` [Example 150], the activity at 0.1 µg/mL was at least 200%.

Take `c1ccn2c(-c3ccc(NCCOC4CCOCC4)cc3)cnc2c1` [Example 109]: the activity at 0.1 µg/mL was at least 200%.

In the case of `N#Cc1ccc2ncc(-c3ccc(OCCOC[C@H]4COCCO4)cc3)n2c1` [Example 93], the activity at 0.1 µg/mL was at least 200%.

Turning to `OCCOc1ccc(-c2cnc3ccc(Cl)cn23)cc1` [Example 116], the activity at 0.1 µg/mL is at least 200%.

Regarding `OCCOc1ccc(-n2cnc3cc(-c4ccccc4)ccc32)cc1` [Example 41], the activity at 0.1 µg/mL is at least 200%.
